For three molecules, IC50 results are on record in patent US7105529B2, “Substituted oxindole derivatives as protein tyrosine and as protein serine/threonine kinase inhibitors and compositions and methods of treating chemotherapy and radiation therapy side effects” (SmithKline Beecham Corporation, priority 1997, dated 2006).

Common to all, as to assay type: cell-based
Assay [1] relates to HDF normal diploid fibroblast cells. Description: MTT assay, HDF. The note with it: 72 h. On the procedure: Compounds are tested for their ability to inhibit cell proliferation and cell viability. The metabolic conversion of 3-(4,5-dimethylthiazol-2-yl)-2,5-diphenyltetrazolium bromide (MTT, Sigma #M2128) to a reduced form is a commonly used measure of cellular viability. Following is the procedure: Cells are maintained in 75 cm^2 tissue culture flasks until ready for use. The cells are grown and plated for the assay in Dulbecco's modified Eagle's media (DMEM) containing 10% fetal bovine serum. For example, the following cell lines can be used: a) human foreskin fibroblasts (HFF); b) HT29 (human colon carcinoma cell line); c) MDA-MB468 (human breast carcinoma cell line); d) RKO (human colon adenocarcinoma cell line); e) SW620 (human colon carcinoma cell line); f A549 (human lung carcinoma cell line); and g) MIA PACA (human pancreatic carcinoma cell line). Cells are maintained at 37° C. in 10% CO2, 90% humidified air. Cells are plated in 96-well tissue culture plates at the densities listed below. 100 μL of cell suspension is added to each well of the 96-well plate except the top row of the plate which contains no cells and serves as a reference for the spectrophotometer. [table] Cells are incubated overnight in DMEM containing 10% fetal bovine serum at 37° C. in 10% CO2, 90% humidified air prior to dosing. […] Compounds with solubilities of less than 30 μM are dosed at the highest soluble concentration. Stock solutions of compounds are made in 100% dimethyl sulfoxide (DMSO). Stock solutions are diluted in DMEM containing 100 μg/ml gentamicin and 0.3 to 0.6% DMSO at the twice the highest concentration to be placed on the cells. If compounds have been dissolved in DMSO the final concentration of DMSO on the cells is kept below 0.3%. Three-fold serial dilutions are performed on each compound to prepare 10 concentrations of the compound for dosing. 100 μl of diluted compound is added to the 100 μl of media currently on the dish. For each concentration of compound, 2–4 replicate wells are prepared. Cells are returned to incubator and allowed to proliferate in the presence of compound for 72 h before addition of MTT. […] After 4 h incubation the media, compound and MTT mixture is aspirated from the plates and 100 μl of 100% DMSO is added to each well in addition to 25 μl of Sorenson's Buffer (0.1M glycine, 0.1M NaCl, pH 10.5). Quantitation of metabolic reduction of MTT in each plate is performed by reading optical density at 570 nm wavelength on a Molecular Devices UVmax microplate reader. […] HDF are normal diploid fibroblast cells. RKO are colon adenocarcinoma cells and MES/SA are ovarian carcinoma cells.

The test system of assay [2] is human diploid fibroblasts (HDF-3). In words: G1-S progression assay (BrdU incorporation). Particulars: read-out: G1/S Chkpt (IC50). On the procedure:
This assay is designed to determine the ability of compounds to inhibit progression of cells from G1 into S-phase. […] The protocol is as follows: • (1) Grow human diploid fibroblasts (HDF-3) in 100 mm tissue culture dish to confluency. (2) Plate 6–7×10^3 cells/well in a 96 well plate in 100 μl of DMEM. […] Dilute compound in DMEM containing DMSO and add 100 μl to each well so that the DMSO conc. is 0.6–0.8% in 200 μl final volume. (4) Two h after addition of compound, add 20 μl of 100 μM Br dU (final conc. 10 μM) Make 100 μM solution in DMEM from 10 mM stock solution. (5) After 4 h, add 200 μl PBS to each well and remove the contents of the wells by inverting the plate and soaking on to the paper towel. Repeat the washing step three times, with 400 ul PBS each time. (6) Fix the cells and denature the DNA by adding 200 μl fixation/denaturation solution to each well for 30–40 min. (7) Remove the fixation/denaturation solution by tapping the plate on the paper towel and add 75 μl of anti BrdU peroxidase antibody to each well. (dilute the antibody to 0.1 U/mL from 15 U/mL stock in PBS containing 1% BSA, Fraction V). Incubate the plate O/N at 4° C. (8) Remove the antibody solution and wash wells four times with 400 μl of PBS. Let the wash solution stay for 3–4 min during each wash. (9) Drain the wells and add 100 μl of chemiluminiscence Elisa reagent (Prepare the reagent 15–20 min before use to bring it to rt by mixing 100 parts of reagent A with 1 part of reagent B). (10) Read the plate in a luminometer. Take 2–3 readings within 6–7 min. Perform the following controls: [table] Deoxybromouridine (BrdU), anti BrdU peroxidase antibodies, fixation/denaturation solution, chemiluminiscence reagent and BSA Fraction V, were obtained from Boehringer Mannheim. The 96-well white plate with clear bottom were purchased from Corning Costar Corporation. Dulbecco's Modified Eagle Medium containing high glucose, L-glutamine and pyridoxine HCl was obtained from GIBCO BRL.
(Uptake of a labelled nucleoside into DNA is a usual measure of proliferation.)

Assay [3] has as its system HDF normal diploid fibroblast cells. Description: FACS assay (cell death), HDF. The note with it: 50% cell death, 72 h. As to the method:
These assays allow determination of both cell death and changes in cell cycle profile in cells following treatment of the compound. The assay is performend as follows: • 1. Cells are incubated in DMEM to which 10% FCS has been added in a humidified incubator at 37° C. and 5% by volume of CO2 in air. The cells are innoculated in 6-well plates at a density of 0.5–5×10^5 cells per well. • 2. The test compound is added in serial dilutions 24–36 h after plating in 0.5% DMSO. The plates are then incubated a further 72 h in the presence of the compound. During this time, cells in control cultures undergo at least three cell divisions. • 3. After incubation, the media is collected and cells are harvested by trypsinization. The cells and media are pooled and pelleted by centrifugation. • 4. The cell pellet is fixed in a final volume of 3 mL of 50% ice cold MeOH and incubated for a minimum of 30 min at −20° C. • 5. The cells are pelleted by centrifugation and resuspended in 0.5 mL PBS containing 1%FCS, […] Propidium Iodide (PI) and 5 mg/mL RNase A and incubated 30 min at 37° C. in the dark. • 6. The samples are analysed by flow cytometry using the relative incorporation of PI as a measure of DNA content of each cell. The % Dead cells is recorded as % of events with less than 2N DNA. […] HDF are normal diploid fibroblast cells. RKO are colon adenocarcinoma cells and MES/SA are ovarian carcinoma cells.

The test system of assay [4] is RKO (human colon adenocarcinoma cell line). In words: MTT assay, RKO. Particulars: 72 h. On the procedure: Compounds are tested for their ability to inhibit cell proliferation and cell viability. The metabolic conversion of 3-(4,5-dimethylthiazol-2-yl)-2,5-diphenyltetrazolium bromide (MTT, Sigma #M2128) to a reduced form is a commonly used measure of cellular viability. Following is the procedure: Cells are maintained in 75 cm^2 tissue culture flasks until ready for use. The cells are grown and plated for the assay in Dulbecco's modified Eagle's media (DMEM) containing 10% fetal bovine serum. For example, the following cell lines can be used: a) human foreskin fibroblasts (HFF); b) HT29 (human colon carcinoma cell line); c) MDA-MB468 (human breast carcinoma cell line); d) RKO (human colon adenocarcinoma cell line); e) SW620 (human colon carcinoma cell line); f A549 (human lung carcinoma cell line); and g) MIA PACA (human pancreatic carcinoma cell line). Cells are maintained at 37° C. in 10% CO2, 90% humidified air. Cells are plated in 96-well tissue culture plates at the densities listed below. 100 μL of cell suspension is added to each well of the 96-well plate except the top row of the plate which contains no cells and serves as a reference for the spectrophotometer. [table] Cells are incubated overnight in DMEM containing 10% fetal bovine serum at 37° C. in 10% CO2, 90% humidified air prior to dosing. […] Compounds with solubilities of less than 30 μM are dosed at the highest soluble concentration. Stock solutions of compounds are made in 100% dimethyl sulfoxide (DMSO). Stock solutions are diluted in DMEM containing 100 μg/ml gentamicin and 0.3 to 0.6% DMSO at the twice the highest concentration to be placed on the cells. If compounds have been dissolved in DMSO the final concentration of DMSO on the cells is kept below 0.3%. Three-fold serial dilutions are performed on each compound to prepare 10 concentrations of the compound for dosing. 100 μl of diluted compound is added to the 100 μl of media currently on the dish. […] Quantitation of metabolic reduction of MTT in each plate is performed by reading optical density at 570 nm wavelength on a Molecular Devices UVmax microplate reader. […]

Molecules are shown by their SMILES. Where two headings read alike, the source gives them in different places.

For the molecule `COC(=O)c1ccc2c(c1)/C(=C/Nc1ccc(S(N)(=O)=O)cc1)C(=O)N2` [Example 27], the IC50 in assay [1] (Fibroblast) was 1.1 to 5 µM; in assay [2] (Homo sapiens, Fibroblast), 1.1 to 5 µM; in assay [3], above 5 µM; in assay [4] (Homo sapiens) it was 1.1 to 5 µM.
For `NS(=O)(=O)c1ccc(NN=C2C(=O)Nc3ccc(-c4cnco4)cc32)cc1` [Example 36], the IC50 in assay [1] (Fibroblast) was 1.1 to 5 µM; in assay [2] (Homo sapiens, Fibroblast), 0.6 to 1 µM; in assay [3], above 5 µM; in assay [4] (Homo sapiens) it was 0.6 to 1 µM.
`O=C1Nc2ccc3ncsc3c2C1=CNc1ccc(S(=O)(=O)NCc2ccncc2)cc1` [Example 104, 4-[(7-Oxo-6,7-dihydro-1-thia-3,6-diaza-as-indacen-8-ylidenemethyl)amino]-N-pyridinyl-4-yl-methyl benzenesulfonamide]: the IC50 in assay [1], in assay [2] and in assay [4] was 1.1 to 5 µM in each case.
